Results on 26 compounds are retold here after patent publication US20240199558A1, “2,4,6-TRISUBSTITUTED 1,3,5-TRIAZINES AS MODULATORS OF CX3CR1” (ASTRAZENECA AB, priority 2022, published 2024).

As a reminder, the IC50 is the concentration that inhibits the measured activity by half.

Chain of CX3CR1 (P49238 whole entry): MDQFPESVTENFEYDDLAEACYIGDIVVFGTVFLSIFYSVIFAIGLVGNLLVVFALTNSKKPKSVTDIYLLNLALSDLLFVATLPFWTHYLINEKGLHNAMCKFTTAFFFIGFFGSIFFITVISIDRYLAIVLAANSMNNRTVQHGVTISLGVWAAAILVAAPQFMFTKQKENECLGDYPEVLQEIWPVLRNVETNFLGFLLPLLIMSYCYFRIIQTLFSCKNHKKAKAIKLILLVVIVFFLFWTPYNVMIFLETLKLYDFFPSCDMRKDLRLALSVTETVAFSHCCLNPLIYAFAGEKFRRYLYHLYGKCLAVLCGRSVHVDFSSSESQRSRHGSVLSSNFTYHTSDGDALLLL

For this experiment, the target named is CX3CR1 (Homo sapiens (Human), UniProt P49238). Briefly: hCX3CR1 [3H]-AZD8797 competitive binding assay (filter). Particulars: CHO-hCX3CR1 membranes, 2 nM [3H]-AZD8797. Here is the method:
hCX3CR1 [^3H]-AZD8797 Competitive Binding Assay (Filter)
CHO-hCX3CR1 membranes (9 μg per well) together with 2 nM [^3H]-AZD8797 and different concentrations of competitor compound were incubated in 25 mM HEPES (pH 7.4), 10 mM MgCl2, 1 mM CaCl2) and 0.5% BSA in a Corning polystyrene flat-bottom 96-well plate. The plate was incubated for 2 h at room temperature before free radioligand was separated from bound by vacuum filtration on to a Multiscreen HTS+HiFlow FB (Millipore) filter plate, using a Biomek FX (Beckman Coulter). The filter plate was washed in ice-cold 25 mM HEPES (pH 7.4), 5 mM MgCl2, 1 mM CaCl2) and 500 mM NaCl and dried at 50° C. for 1 h. Scintillation cocktail, Optiphase Supermix (PerkinElmer) was added to each well and the radioactivity was measured using a MicroBeta Trilux reader (PerkinElmer). The DMSO concentration was held constant at 1%.
For `CC(C)C[C@H](CO)Nc1nc(C[C@@H](C)c2ccc(Cl)c(F)c2F)nc(NS(C)(=O)=O)n1` (single isomer, unassigned) [Example 34, N-(4-((R*)-2-(4-Chloro-2,3-difluorophenyl)propyl)-6-(((R)-1-hydroxy-4-methylpentan-2-yl)amino)-1,3,5-triazin-2-yl)methanesulfonamide], the IC50 was found to be 0.052 µM.

In the case of `CCOc1ccc(C(C)Cc2nc(N[C@@H](CO)CC(C)C)nc(NS(C)(=O)=O)n2)cn1` (stereo partly drawn) [Example 167, N-(4-(2-(6-Ethoxypyridin-3-yl)propyl)-6-(((R)-1-hydroxy-4-methylpentan-2-yl)amino)-1,3,5-triazin-2-yl)methanesulfonamide], the half-maximal inhibitory concentration (IC50) was found to be 0.31 µM.

`CC(C)C[C@H](CO)Nc1nc(CC(C)c2ccc(C(C)(F)F)cc2)nc(NS(C)(=O)=O)n1` (stereo partly drawn) [Example 71, N-(4-(2-(4-(1,1-Difluoroethyl)phenyl)propyl)-6-(((R)-1-hydroxy-4-methylpentan-2-yl)amino)-1,3,5-triazin-2-yl)methanesulfonamide] showed a half-inhibitory concentration (IC50) of 0.331 µM.

As to `CC(C)C[C@H](CO)Nc1nc(CC(C)c2ccc(CCO)nc2)nc(NS(C)(=O)=O)n1` (stereo partly drawn) [Example 132, N-(4-(((R)-1-Hydroxy-4-methylpentan-2-yl)amino)-6-(2-(6-(2-hydroxyethyl)pyridin-3-yl)propyl)-1,3,5-triazin-2-yl)methanesulfonamide], the concentration for half-maximal inhibition (IC50) came to 0.264 µM.

The compound `CC(C)C[C@H](CO)Nc1nc(C[C@H](C)c2c(F)cccc2F)nc(NS(C)(=O)=O)n1` (single isomer, unassigned) [Example 77, N-(4-((S*)-2-(2,6-Difluorophenyl)propyl)-6-(((R)-1-hydroxy-4-methylpentan-2-yl)amino)-1,3,5-triazin-2-yl)methanesulfonamide] registered a concentration for half-maximal inhibition (IC50) of 3.25 µM.

In turn, `CC(C)C[C@H](CO)Nc1nc(C[C@H](C)c2cc(Cl)ccc2F)nc(NS(C)(=O)=O)n1` (single isomer, unassigned) [Example 29, N-(4-((S*)-2-(5-Chloro-2-fluorophenyl)propyl)-6-(((R)-1-hydroxy-4-methylpentan-2-yl)amino)-1,3,5-triazin-2-yl)methanesulfonamide] gave a concentration for half-maximal inhibition (IC50) of 0.794 µM.

`CC(C)C[C@H](CO)Nc1nc(C[C@H](C)c2cc(F)c(F)c(F)c2)nc(NS(C)(=O)=O)n1` (single isomer, unassigned) [Example 21, N-(4-(((R)-1-Hydroxy-4-methylpentan-2-yl)amino)-6-((S*)-2-(3,4,5-trifluorophenyl)propyl)-1,3,5-triazin-2-yl)methanesulfonamide] showed an IC50 of 6.41 µM.

The compound `CC(C)C[C@H](CO)Nc1nc(CC(C)c2ccc(C3CCOCC3)cc2)nc(NS(C)(=O)=O)n1` (stereo partly drawn) [Example 102, N-(4-(((R)-1-Hydroxy-4-methylpentan-2-yl)amino)-6-(2-(4-(tetrahydro-2H-pyran-4-yl)phenyl)propyl)-1,3,5-triazin-2-yl)methanesulfonamide] yielded an IC50 of 0.088 µM.

The compound `COc1ccc([C@@H](C)Cc2nc(N[C@@H](CO)CC(C)C)nc(NS(C)(=O)=O)n2)c(F)n1` (single isomer, unassigned) [Example 86, N-(4-((S*)-2-(2-Fluoro-6-methoxypyridin-3-yl)propyl)-6-(((R)-1-hydroxy-4-methylpentan-2-yl)amino)-1,3,5-triazin-2-yl)methanesulfonamide] yielded an IC50 of 0.073 µM.

`Cc1cc(C(C)Cc2nc(N[C@@H](CO)CC(C)C)nc(NS(C)(=O)=O)n2)ccc1F` (stereo partly drawn) [Example 111, N-(4-(2-(4-Fluoro-3-methylphenyl)propyl)-6-(((R)-1-hydroxy-4-methylpentan-2-yl)amino)-1,3,5-triazin-2-yl)methanesulfonamide] had an IC50 of 0.391 µM.

Turning to `CC[C@@H](Cc1nc(N[C@@H](CO)CC(C)C)nc(NS(C)(=O)=O)n1)c1cccc(F)c1F` (single isomer, unassigned) [Example 48, N-(4-((S*)-2-(2,3-Difluorophenyl)butyl)-6-(((R)-1-hydroxy-4-methylpentan-2-yl)amino)-1,3,5-triazin-2-yl)methanesulfonamide], the concentration for half-maximal inhibition (IC50) came to 0.309 µM.

In turn, `COc1ccc(C(C)Cc2nc(N[C@@H](CO)CC(C)C)nc(NS(C)(=O)=O)n2)cc1` (stereo partly drawn) [Example 113, N-(4-(((R)-1-Hydroxy-4-methylpentan-2-yl)amino)-6-(2-(4-methoxyphenyl)propyl)-1,3,5-triazin-2-yl)methanesulfonamide] displayed a half-maximal inhibitory concentration (IC50) of 0.184 µM.

In turn, `CC(C)C[C@H](CO)Nc1nc(CC(C)c2ccc(N3CCNCC3)cc2)nc(NS(C)(=O)=O)n1` (stereo partly drawn) [Example 54, N-(4-(((R)-1-Hydroxy-4-methylpentan-2-yl)amino)-6-(2-(4-(piperazin-1-yl)phenyl)propyl)-1,3,5-triazin-2-yl)methanesulfonamide] came in with a half-maximal inhibitory concentration (IC50) of 0.153 µM.

With `CC(C)C[C@H](CO)Nc1nc(CC(C)c2ccc(C(=O)N(C)C)c(F)c2)nc(NS(C)(=O)=O)n1` (stereo partly drawn) [Example 116, 2-Fluoro-4-(1-(4-(((R)-1-hydroxy-4-methylpentan-2-yl)amino)-6-(methylsulfonamido)-1,3,5-triazin-2-yl)propan-2-yl)-N,N-dimethylbenzamide], the IC50 turned out to be 0.282 µM.

`CC(C)C[C@H](CO)Nc1nc(CC(c2ccccc2)C(F)(F)F)nc(NS(C)(=O)=O)n1` (stereo partly drawn) [Example 151, N-(4-(((R)-1-Hydroxy-4-methylpentan-2-yl)amino)-6-(3,3,3-trifluoro-2-phenylpropyl)-1,3,5-triazin-2-yl)methanesulfonamide] displayed a 50% inhibitory concentration (IC50) of 0.493 µM.

Compound `CC(C)C[C@H](CO)Nc1nc(C[C@@H](C)c2cc(F)c(Cl)c(F)c2)nc(NS(C)(=O)=O)n1` (single isomer, unassigned) [Example 31, N-(4-((R*)-2-(4-Chloro-3,5-difluorophenyl)propyl)-6-(((R)-1-hydroxy-4-methylpentan-2-yl)amino)-1,3,5-triazin-2-yl)methanesulfonamide] came in with an IC50 of 0.287 µM.

Consider `CC(C)C[C@H](CO)Nc1nc(CC(C)c2cnc3c(c2)OCC(=O)N3C)nc(NS(C)(=O)=O)n1` (stereo partly drawn) [Example 125, N-(4-(((R)-1-Hydroxy-4-methylpentan-2-yl)amino)-6-(2-(4-methyl-3-oxo-3,4-dihydro-2H-pyrido[3,2-b][1,4]oxazin-7-yl)propyl)-1,3,5-triazin-2-yl)methanesulfonamide], for which the IC50 was determined as 0.085 µM.

`CC(C)C[C@H](CO)Nc1nc(CC(C)c2ccc(OCCN3CCOCC3)cc2)nc(NS(C)(=O)=O)n1` (stereo partly drawn) [Example 115, N-(4-(((R)-1-Hydroxy-4-methylpentan-2-yl)amino)-6-(2-(4-(2-morpholinoethoxy)phenyl)propyl)-1,3,5-triazin-2-yl)methanesulfonamide] returned an IC50 of 0.16 µM.

Regarding `CC(C)C[C@H](CO)Nc1nc(CC(C)c2ccc3ocnc3c2)nc(NS(C)(=O)=O)n1` (stereo partly drawn) [Example 62, N-(4-(2-(Benzo[d]oxazol-5-yl)propyl)-6-(((R)-1-hydroxy-4-methylpentan-2-yl)amino)-1,3,5-triazin-2-yl)methanesulfonamide], the IC50 is 0.14 µM.

`CC(C)C[C@H](CO)Nc1nc(CC(C)c2cccc3c(=O)n(C)cnc23)nc(NS(C)(=O)=O)n1` (stereo partly drawn) [Example 109, N-(4-(((R)-1-Hydroxy-4-methylpentan-2-yl)amino)-6-(2-(3-methyl-4-oxo-3,4-dihydroquinazolin-8-yl)propyl)-1,3,5-triazin-2-yl)methanesulfonamide] showed an IC50 of 0.084 µM.

For the compound `COc1cccc(C(C)Cc2nc(N[C@@H](CO)CC(C)C)nc(NS(C)(=O)=O)n2)c1` (stereo partly drawn) [Example 92, N-(4-(((R)-1-Hydroxy-4-methylpentan-2-yl)amino)-6-(2-(3-methoxyphenyl)propyl)-1,3,5-triazin-2-yl)methanesulfonamide], the half-inhibitory concentration (IC50) was 0.112 µM.

`CC(C)C[C@H](CO)Nc1nc(CC(C)c2ccc3c(c2)OCO3)nc(NS(C)(=O)=O)n1` (stereo partly drawn) [Example 108, N-(4-(2-(Benzo[d][1,3]dioxol-5-yl)propyl)-6-(((R)-1-hydroxy-4-methylpentan-2-yl)amino)-1,3,5-triazin-2-yl)methanesulfonamide] yielded a 50% inhibitory concentration (IC50) of 0.058 µM.

As to `CC(C)C[C@H](CO)Nc1nc(CC(C)c2cccc(CN3OCCC3=O)c2)nc(NS(C)(=O)=O)n1` (stereo partly drawn) [Example 101, N-(4-(((R)-1-Hydroxy-4-methylpentan-2-yl)amino)-6-(2-(3-((3-oxoisoxazolidin-2-yl)methyl)phenyl)propyl)-1,3,5-triazin-2-yl)methanesulfonamide], the IC50 came to 0.542 µM.

Compound `CC(C)C[C@H](CO)Nc1nc(CC(C)c2c[nH]c3ncccc23)nc(NS(C)(=O)=O)n1` (stereo partly drawn) [Example 93, N-(4-(2-(1H-Pyrrolo[2,3-b]pyridin-3-yl)propyl)-6-(((R)-1-hydroxy-4-methylpentan-2-yl)amino)-1,3,5-triazin-2-yl)methanesulfonamide] gave a 50% inhibitory concentration (IC50) of 0.209 µM.

For `COc1cc(F)c([C@@H](C)Cc2nc(N[C@@H](CO)CC(C)C)nc(NS(C)(=O)=O)n2)cn1` (single isomer, unassigned) [Example 45, N-(4-((S*)-2-(4-Fluoro-6-methoxypyridin-3-yl)propyl)-6-(((R)-1-hydroxy-4-methylpentan-2-yl)amino)-1,3,5-triazin-2-yl)methanesulfonamide], the half-inhibitory concentration (IC50) was found to be 0.765 µM.

Compound `CC(C)C[C@H](CO)Nc1nc(CC(C)c2ccc(C(=O)N3CCOCC3)cc2)nc(NS(C)(=O)=O)n1` (stereo partly drawn) [Example 156, N-(4-(((R)-1-Hydroxy-4-methylpentan-2-yl)amino)-6-(2-(4-(morpholine-4-carbonyl)phenyl)propyl)-1,3,5-triazin-2-yl)methanesulfonamide] had an IC50 of 1.96 µM.
